# Measured values reported in ChEMBL document CHEMBL4382196, “Unraveling the Prenylation-Cancer Paradox in Multiple Myeloma with Novel Geranylgeranyl Pyrophosphate Synthase (GGPPS) Inhibitors” (J Med Chem, 2018).
# Substitutions are numbered along the chain they refer to. Activity calls are given as the source filed them. No cut-off for these calls is given here.
# Key:
# [1] = target: T1, Farnesyl pyrophosphate synthase (Homo sapiens) (UniProt P14324); experiment: Inhibition of human FPPS at 10 uM using [14C]-IPP and […] after 10 mins by scintillation counting
# T1 sequence (whole entry): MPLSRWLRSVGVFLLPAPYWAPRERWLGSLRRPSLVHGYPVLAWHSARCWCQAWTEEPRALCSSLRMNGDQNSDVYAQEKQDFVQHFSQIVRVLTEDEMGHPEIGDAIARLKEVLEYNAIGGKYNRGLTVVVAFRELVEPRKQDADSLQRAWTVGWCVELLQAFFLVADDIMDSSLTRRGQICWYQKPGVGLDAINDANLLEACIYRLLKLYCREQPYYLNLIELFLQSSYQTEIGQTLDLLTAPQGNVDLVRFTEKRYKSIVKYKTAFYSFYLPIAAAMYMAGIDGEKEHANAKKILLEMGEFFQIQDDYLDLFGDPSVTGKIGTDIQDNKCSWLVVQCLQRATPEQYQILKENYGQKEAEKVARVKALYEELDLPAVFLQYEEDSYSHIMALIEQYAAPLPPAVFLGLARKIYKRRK
# [2] = tested on: RPMI-8226; experiment: Antiproliferative activity against human RPMI8226 cells at 10 uM after 72 hrs by MTT assay; assay type: functional, cell-based
# [3] = target: T2, Geranylgeranyl pyrophosphate synthase (Homo sapiens) (UniProt O95749); experiment: Inhibition of human N-terminal His6-tagged GGPPS expressed in Escherichia coli BL21(DE3) at 10 uM using [14C]-IPP and FPP as substrates after 10 mins by scintillation counting
# T2 sequence (whole entry): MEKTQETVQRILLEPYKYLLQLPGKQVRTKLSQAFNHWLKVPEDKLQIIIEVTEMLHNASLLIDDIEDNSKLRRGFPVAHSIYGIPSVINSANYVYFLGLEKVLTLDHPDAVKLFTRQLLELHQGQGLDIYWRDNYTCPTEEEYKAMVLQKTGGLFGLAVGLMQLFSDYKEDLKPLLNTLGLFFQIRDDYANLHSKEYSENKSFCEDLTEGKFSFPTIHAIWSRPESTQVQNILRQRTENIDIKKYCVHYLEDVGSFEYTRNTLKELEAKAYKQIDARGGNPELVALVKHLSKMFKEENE
# [4] = species on record: Homo sapiens; experiment: Selectivity ratio of IC50 for human FPPS to IC50 for human N-terminal His6-tagged GGPPS
# [5] = tested on: RPMI-8226; experiment: cells; conditions: Homo sapiens, RPMI-8226, 72 h
# [6] = target: Geranylgeranyl pyrophosphate synthase (Homo sapiens, UniProt O95749, Y246D)
# Geranylgeranyl pyrophosphate synthase (Homo sapiens, UniProt O95749, Y246D), sequence (O95749 whole entry Y246D): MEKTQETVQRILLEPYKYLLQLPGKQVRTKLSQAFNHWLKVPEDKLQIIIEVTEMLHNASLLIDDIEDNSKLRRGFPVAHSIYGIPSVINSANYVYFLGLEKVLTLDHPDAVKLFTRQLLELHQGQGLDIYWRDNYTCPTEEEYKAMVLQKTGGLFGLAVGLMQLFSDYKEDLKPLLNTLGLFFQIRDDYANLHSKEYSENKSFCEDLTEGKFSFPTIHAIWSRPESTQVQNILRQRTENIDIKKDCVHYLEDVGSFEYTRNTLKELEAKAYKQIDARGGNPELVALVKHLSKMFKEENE
# [7] = tested on: RPMI-8226; experiment: Induction of apoptosis in human RPMI8226 cells assessed as late apoptotic cells at 1 uM after 72 hrs by APC Annexin V/eFluor-780-viability double staining-based FACS analysis (reference value: 5.80%); assay type: functional
# [8] = tested on: RPMI-8226; experiment: Induction of apoptosis in human RPMI8226 cells assessed as necrotic cells at 1 uM after 72 hrs by APC Annexin V/eFluor-780-viability double staining-based FACS analysis (reference value: 3.60%); assay type: functional
# [9] = tested on: Hydroxyapatite; experiment: Binding affinity to bone mineral hydroxyapatite at 50 uM by 1H NMR assay
# [10] = tested on: RPMI-8226; experiment: Induction of apoptosis in human RPMI8226 cells assessed as early apoptotic cells at 1 uM after 72 hrs in presence GGOH by APC Annexin V/eFluor-780-viability double staining-based FACS analysis (reference value: 3.31%); assay type: functional
# [11] = Half life in CD1 mouse liver microsomes by LC-MS/MS analysis; assay type: ADME, Microsome
# [12] = Hepatotoxicity in Vk*MYC transgenic mouse model assessed as effect of serum AST levels at 3 mg/kg/day, ip administered over 14 days and measured at 4 hrs post last dose relative to control; assay type: toxicity, organism-based; conditions: in vivo
# [13] = tested on: MIA PaCa-2; experiment: Antiproliferative activity against human MIAPaCa2 cells at 10 uM after 72 hrs by celltiter-glo luminescent assay; assay type: functional, cell-based
# [14] = Toxicity in Vk*MYC transgenic mouse model assessed as weight loss at 3 mg/kg/day, ip administered over 14 days and measured at 4 hrs post last dose (reference value: 10 to 16%); assay type: organism-based; conditions: in vivo
# [15] = Hepatotoxicity in Vk*MYC transgenic mouse model assessed as effect of serum ALT levels at 3 mg/kg/day, ip administered over 14 days and measured at 4 hrs post last dose relative to control; assay type: toxicity, organism-based; conditions: in vivo
# [16] = Half life in Sprague-Dawley rat liver microsomes by LC-MS/MS analysis; assay type: ADME, Microsome
# [17] = tested on: RPMI-8226; experiment: Induction of apoptosis in human RPMI8226 cells assessed as necrotic cells at 1 uM after 72 hrs in presence GGOH by APC Annexin V/eFluor-780-viability double staining-based FACS analysis (reference value: 3.60%); assay type: functional
# [18] = tested on: RPMI-8226; experiment: Induction of apoptosis in human RPMI8226 cells assessed as late apoptotic cells at 1 uM after 72 hrs in presence GGOH by APC Annexin V/eFluor-780-viability double staining-based FACS analysis (reference value: 5.80%); assay type: functional
# [19] = tested on: RPMI-8226; experiment: Induction of apoptosis in human RPMI8226 cells assessed as viable cells at 1 uM after 72 hrs in presence GGOH by APC Annexin V/eFluor-780-viability double staining-based FACS analysis (reference value: 87.3%); assay type: functional; conditions: RPMI-8226, 72 h, read-out: Activity
# [20] = tested on: NCI/ADR-RES; experiment: Antiproliferative activity against human NCI-ADR-RES cells after 72 hrs by celltiter-glo luminescent assay; assay type: functional, cell-based
# [21] = tested on: RPMI-8226; experiment: Induction of apoptosis in human RPMI8226 cells assessed as early apoptotic cells at 1 uM after 72 hrs by APC Annexin V/eFluor-780-viability double staining-based FACS analysis (reference value: 3.31%); assay type: functional
# [22] = target: T3, Farnesyl pyrophosphate synthase (Homo sapiens, UniProt P14324); experiment: Inhibition of human FPPS using [14C]-IPP and […] after 10 mins by scintillation counting
# T3 sequence (P14324 whole entry): T1 sequence (whole entry)
# [23] = Half life in human liver microsomes by LC-MS/MS analysis; assay type: ADME, Microsome
# [24] = tested on: RPMI-8226; experiment: Induction of apoptosis in human RPMI8226 cells assessed as viable cells at 1 uM after 72 hrs by APC Annexin V/eFluor-780-viability double staining-based FACS analysis (reference value: 87.3%); assay type: functional; conditions: RPMI-8226, 72 h, read-out: Activity
# [25] = target: T4, Geranylgeranyl pyrophosphate synthase (Homo sapiens, UniProt O95749)
# T4 sequence (O95749 whole entry): T2 sequence (whole entry)
# [26] = tested on: HT-29; experiment: Antiproliferative activity against human HT-29 cells at 10 uM after 72 hrs by celltiter-glo luminescent assay; assay type: functional, cell-based
# [27] = tested on: A549; experiment: Antiproliferative activity against human A549 cells at 10 uM after 72 hrs by celltiter-glo luminescent assay; assay type: functional, cell-based
# [28] = tested on: T98G; experiment: Antiproliferative activity against human T98G cells at 10 uM after 72 hrs by celltiter-glo luminescent assay; assay type: functional, cell-based
# [29] = tested on: HCT-116; experiment: Antiproliferative activity against human HCT116 cells at 10 uM after 72 hrs by celltiter-glo luminescent assay; assay type: functional, cell-based
# [30] = tested on: HT-1080; experiment: Antiproliferative activity against human HT1080 cells at 10 uM after 72 hrs by celltiter-glo luminescent assay; assay type: functional, cell-based
# [31] = tested on: T5, Geranylgeranyl pyrophosphate synthase (Homo sapiens), O95749 [Y246D]; experiment: Binding affinity to human N-terminal His6-tagged GGPPS Y246D mutant expressed in Escherichia coli BL21(DE3) assessed as enzyme-inhibitor complex formation by measuring thermal stability in presence of Mg2+ ions by differential scanning fluorimetry
# T5 sequence (whole entry): T2 sequence (whole entry) with Y246D
# [32] = target: T1, Farnesyl pyrophosphate synthase (Homo sapiens); experiment: Inhibition of human FPPS at 1 uM using [14C]-IPP and […] after 10 mins by scintillation counting relative to control
structure (smiles),measurement,setting,value
O=C(Nc1cccc(-c2cc3c(NC(P(=O)(O)O)P(=O)(O)O)ncnc3s2)c1)c1ccccc1,inhibition,[1],inactive
same,Activity,[2],inactive
same,inhibition,[3],inactive
O=C(Nc1cccc(-c2nc(NC(P(=O)(O)O)P(=O)(O)O)c3ccsc3n2)c1)c1ccccc1,Ratio IC50,[4],30
same,EC50,[5],500 nM
same,IC50,[6],39 nM
COc1ccc(NC(=O)c2cccc(-c3nc(NC(P(=O)(O)O)P(=O)(O)O)c4ccsc4n3)c2)cc1F,Activity,[7],43%
same,Activity,[8],40.2%
same,Activity,[9],Active
same,Activity,[10],3.06%
same,t1/2,[11],128 min
same,Activity,[12],Toxic
same,Activity,[13],Active
same,Activity,[14],15 to 28%
same,Activity,[15],Toxic
same,t1/2,[16],187 min
same,Activity,[17],5.33%
same,Activity,[18],6.18%
same,viability at 1 µM,[19],85.4%
same,Activity,[20],Active
same,Activity,[21],4.42%
same,IC50,[22],1400 nM
same,t1/2,[23],154 min
same,viability at 1 µM,[24],12.3%
O=C(Nc1ccccc1)c1cccc(-c2nc(NC(P(=O)(O)O)P(=O)(O)O)c3ccsc3n2)c1,Activity,[9],Active
same,EC50,[5],460 nM
same,IC50,[25],49 nM
same,IC50,[6],50 nM
O=P(O)(O)C(Nc1ncnc2sc(-c3ccc(C(F)(F)F)cc3)cc12)P(=O)(O)O,EC50,[5],> 100000 nM
same,IC50,[25],1500 nM
O=P(O)(O)C(Nc1nc(-c2ccccc2)nc2sccc12)P(=O)(O)O,IC50,[22],550 nM
COc1ccc(NC(=O)c2cccc(-c3nc(NC(P(=O)(O)O)P(=O)(O)O)c4ccsc4n3)c2)cc1,Activity,[26],Active
same,Activity,[13],Active
same,EC50,[5],230 nM
same,IC50,[25],75 nM
same,Activity,[20],Active
same,IC50,[22],1300 nM
same,Activity,[27],Active
same,Activity,[28],Active
same,Activity,[29],Active
same,Activity,[30],Active
O=C(Nc1cccc(-c2nc(NC(P(=O)(O)O)P(=O)(O)O)c3ccsc3n2)c1)c1ccc(F)cc1,Activity,[31],Active
same,IC50,[25],42 nM
same,inhibition,[32],20%
same,IC50,[22],> 1000 nM
